Source: patent US5246928A, “Thiadiazinones for stimulating cardiac activity” (Smith Kline & French Laboratories Limited, priority 1991, dated 1993)
pIC50: −log10 of the molar value.

Key:
[1] = test system: left ventricular dp/dt max; assay: Cardiac Stimulant Activity - In vivo (Conscious Dogs): left ventricular dp/dt max; set-up: species or system dog
Protocol: Cardiac Stimulant Activity-In vivo (Conscious Dogs)
Oral administration caused positive inotropic responses at doses of 0.05 mg/kg and below.

[2] = test system: histamine-induced bronchoconstriction; assay: Bronchodilatation in vivo: histamine-induced bronchoconstriction in anaesthetised guinea-pigs; set-up: species or system guinea-pig (Dunkin Hartley); details: guinea-pig, i.v.; in words
Protocol: Male guinea-pigs of the Dunkin Hartley strain (530 g±6 g) were anaesthetised with Sagatal (pentobarbital sodium) (90 mg/kg i.p.). Airway resistance was measured using a modification of the classical Konzett-Rossler technique (Versuchsanordnung zu Untersuchungen an der Bronchialmuskulatur. Naunyn-Schmiedebergs Arch. Exp. Path. Pharmak., 195: pp 71-74, (1940)). A dose of histamine which gave approximately 150% increase in airway resistance was selected for i.v. administration. Bolus doses of the compound of Example 1 were administered (i.v.) one minute before the histamine challenge.
The threshold dose for this compound was 1×10^-8 mol/kg.

PDE (Peak III) = assay: Inhibition of PDE (Peak III) from cat heart; details: read-out: IC50 × 10^-6, 1 μM cyclic AMP, pH 7.5, 37°
Protocol: (§1) The enzyme was assayed by incubation at 37° for 4-30 min in 50 mM Tris, 5 mM MgCl2, pH 7.5 with [3-H] cyclic nucleotide (4×10^5 disintegrations min^-1) and [14-C] nucleotide 5' monophosphate (3×10^3 disintegrations min^-1). The assay was stopped by boiling, and the [3-H] […] The reaction mixture was diluted with 0.5 ml 100 mM HEPES (N-2-Hydroxyethylpiperazine-N'-2-ethanesulfonic acid), 100 mM NaCl, pH 8.5, and applied to the column. […] The recovery of product as judged by [14-C] recovery was approximately 80%. All assays were linear with time of incubation and concentration of enzyme over the range used in these experiments.

[3] = test system: left ventricular contractility; assay: Cardiac Stimulant Activity - In vivo (Anaesthetised Cats): increase in left ventricular dp/dt max, i.v.; set-up: species or system cat; details: Felis catus, iv, read-out: ED50 (dose to increase left ventricular dp/dt max by 50%), pretreated with ganglion blocker and propranolol
PDE (Peak I) = assay: Substrate kinetics of PDE (Peak I) from cat heart; assay type: biochemical; details: without calmodulin
Protocol: as §1

[4] = in words, in contrast to Example 1

Row | Compound | pIC50 (PDE (Peak III)) | ED50 [3] [µmol/kg] | also measured
1 | Nc1cc(-c2ccncc2)c[nH]c1=O [Amrinone, reference compound] | – | – | activity in comparison with compound of Example 1 [1, 4]: less active; duration in comparison with compound of Example 1 [1, 4]: shorter duration
2 | CC1CC(=O)NN=C1c1ccc(-n2ccc(=O)cc2)cc1 (stereo not shown) [Example 1, 5-Methyl-6-[4-(4-oxo-1,4-dihydropyridin-1-yl)phenyl]-4,5-dihydro-3(2H)-pyridazinone] | 6.39 | – | changes in blood pressure or heart rate ([1]; conscious dogs): without changes in blood pressure or heart rate; duration of positive inotropic responses ([1]; conscious dogs, 3 hours = maximum duration of measurement): more than 3 hours; 'force-rate' selectivity ([1]; conscious dogs, in words): particularly beneficial; effect on histamine-induced bronchoconstriction [2]: reduced the histamine-induced bronchoconstriction
3 | O=C1CCC(c2ccc(-n3ccc(=O)cc3)cc2)=NN1 [Example 2, 6-[4-(4-Oxo-1,4-dihydropyridin-1-yl)phenyl]-4,5-dihydro-3(2H)-pyridazinone] | 5.29 | 0.4 | –
4 | O=c1ccn(-c2ccc(-c3ccc(=O)[nH]n3)cc2)cc1 [Example 3, 6-[4-(4-Oxo-1,4-dihydropyridin-1-yl)phenyl]-3(2H)-pyridazinone] | 5.40 | 0.47 | –
5 | O=C1CSC(c2ccc(-n3ccc(=O)cc3)cc2)=NN1 [Example 4, 2-[4-(4-Oxo-1,4-dihydropyridin-1-yl)phenyl]-4H,6H-1,3,4-thiadiazin-5-one] | 5.80 | 0.06 | –
6 | O=C1COC(c2ccc(-n3ccc(=O)cc3)cc2)=NN1 [Example 5, 2-[4-(4-Oxo-1,4-dihydropyridin-1-yl)phenyl]-4H,6H-1,3,4-oxadiazin-5-one] | 5.36 | 0.22 | –
7 | O=C1NCC(c2ccc(-n3ccc(=O)cc3)cc2)=NN1 [Example 6, 6-[4-(4-Oxo-1,4-dihydropyridin-1-yl)phenyl]-4,5-dihydro-1,2,4-triazin-3(2H)-one] | 5.76 | 0.23 | –
8 | CC1NC(=O)NN=C1c1ccc(-n2ccc(=O)cc2)cc1 (stereo not shown) [Example 7, 6-[4-(4-Oxo-1,4-dihydropyridin-1-yl)phenyl]-5-methyl-4,5-dihydro-1,2,4-triazin-3(2H)-one] | 6.27 | 0.11 | –
9 | CC12Cc3cc(-n4ccc(=O)cc4)ccc3C1=NNC(=O)S2 (stereo not shown) [Example 8, 7-(4-Oxo-1,4-dihydropyridin-1-yl)-9a-methyl-9,9a-dihydroindeno[1,2-e][1,3,4]thiadiazin-2(3H)-one] | 5.88 | 0.07 | –
10 | O=C1NN=C2c3ccc(-n4ccc(=O)cc4)cc3CC2S1 (stereo not shown) [Example 9, 7-(4-Oxo-1,4-dihydropyridin-1-yl)-9,9a-dihydroindeno[1,2-e][1,3,4]thiadiazin-2(3H)-one] | 5.90 | 0.05 | –
11 | CC1SC(=O)NN=C1c1ccc(-n2ccc(=O)cc2)cc1 (stereo not shown) [Example 10, 5-[4-(4-Oxo-1,4-dihydropyridin-1-yl)phenyl]-6-methyl-3H,6H-1,3,4-thiadiazin-2-one] | 6.36 | 0.07 | –
12 | O=c1ccn(-c2ccc(-c3c[nH]c(=O)cn3)cc2)cc1 [Example 11, 5-[4-(4-Oxo-1,4-dihydropyridin-1-yl)phenyl]-2(1H)-pyrazinone] | 5.58 | – | –
13 | O=C1CC2CCc3cc(-n4ccc(=O)cc4)ccc3C2=NN1 (stereo not shown) [Example 13, 8-(4-Oxo-1,4-dihydropyridin-1-yl)-4,4a, 5,6-tetrahydrobenzo[h]cinnolin-3(2H)-one] | 5.18 | 0.78 | –
14 | O=c1ccn(-c2ccc(-c3n[nH]c(=O)s3)cc2)cc1 [Example 14, 5-[4-(4-Oxo-1,4-dihydropyridin-1-yl)phenyl]-1,3,4-thiadiazol-2(3H)-one] | 5.65 | 0.82 | –
15 | C[C@@H]1CC(=O)NN=C1c1ccc(-n2ccc(=O)cc2)cc1 [Example 16, (R)-5-Methyl-6-[4-(4-oxo-1,4-dihydropyridin-1-yl)phenyl]-4,5-dihydro-3(2H)-pyridazinone] | 6.64 | – | –
16 | C[C@H]1CC(=O)NN=C1c1ccc(-n2ccc(=O)cc2)cc1 [Example 17, (S)-5-Methyl-6-[4-(4-oxo-1,4-dihydropyridin-1-yl)phenyl]-4,5-dihydro-3(2H)-pyridazinone] | 5.59 | – | –
17 | Nc1nc2c(ncn2[C@@H]2O[C@@H]3COP(=O)(O)O[C@H]3[C@H]2O)c(=O)[nH]1 [cyclic GMP] | – | – | Km (PDE (Peak I)): 1.8 µM; Relative Vmax (PDE (Peak I)): 1.1
